Laboratory results: PMC6233196 (Nature Communications, 2018)
pKd, pKi: −log10 of the molar value. “Also recorded” adds a separate entry of the source.

What was measured:
GluN1/GluN3A receptors [1] = biological target: T1, GluN1/GluN3A receptors (Rattus norvegicus, UniProt P35439+Q9R1M7); assay: Whole-cell patch-clamp of glycine currents in HEK293 cells expressing wild-type GluN1/GluN3A; settings: for Effect of reducing treatment on glycine-evoked responses: 20 min, glycine 100 µM; for Peak and steady-state current potentiation compared with CGP-78608: MDL-29951 200 nM, 7-CKA 10 µM, L-689560 1 µM pre-incubated
Description: HEK293 cells were used for heterologous expression of recombinant GluN1/GluN3 receptors studied using whole-cell patch-clamp. […] Recordings were performed 24–48 h following cell transfection. The extracellular solution contained (in mM): 140 NaCl, 2.8 KCl, 1 CaCl2, 10 HEPES and 20 Sucrose (290–300 mOsm), pH adjusted to 7.3 using NaOH. […] Drugs and agonists were applied using a multi-barrel solution exchanger (RSC 200; Bio-logic). Recordings were performed at −60 mV and at room temperature. […] EC50, a and nH were set as free parameters.

[2] = biological target: T2, GluN1-F484A/GluN3A receptors (Rattus norvegicus, UniProt P35439+Q9R1M7, F484A); assay: Whole-cell patch-clamp in HEK293 cells, GluN1-F484A mutant; assay type: cell-based; settings: CGP-78608 500 nM
T2 construct: while we record from intact (i.e. full length) membrane-imbedded receptors; expressed in transfected cells; host or cells: HEK293 cells
Description: (§1) Cells were transfected using polyethylenimine with GluN1, GluN3A and GFP plasmids at a 1:3:1 ratio (0.3, 0.9 and 0.3 ng/µl respectively). Recordings were performed 24–48 h following cell transfection. […] EC50, a and nH were set as free parameters.

[3] = test system: CA1 pyramidal cells of GluN3A-KO mice; assay: Glycine puffs onto voltage-clamped CA1 pyramidal cells, hippocampal slices of GluN3A-KO mice; assay type: cell-based, mouse; settings: glycine 10 mM puff
Description: (§2) Ex-vivo electrophysiological experiments were performed on coronal slices from the brains of juvenile wild-type (WT) and GluN3A-KO mice originating from the same litters (8–12 days old). Slices were prepared as described previously. Briefly, mice were anesthetized with isofluorane before decapitation. After isolation, the portion of the brain containing the hippocampus was placed in bicarbonate-buffered saline (BBS) at 2–5 °C for a few minutes. Slices (300 μm) were then cut using a 7000 smz-2 vibratome (Campden). The slicing procedure was performed in an ice-cold solution containing (in mM): 130 K^+- gluconate, 15 KCl, 0.05 EGTA, 20 Hepes, 25 glucose, 1 CaCl2, and 6 MgCl2 supplemented with DL-APV (50 µM).
(§3) CA1 neurons were recorded from both the ventral and the dorsal hippocampus. Cells were visualized with a combination of Dodt contrast, and an on-line video contrast enhancement. CA1 cells could be easily identified in the red light with which slices were visualized using a CoolSnap HQ2 CCD camera (Photometrics) run by MetaMorph (Universal Imaging). Whole-cell recordings were performed with an EPC-10 double amplifier (Heka Elektronik) run by PatchMaster (Heka). […] Series resistance was partially compensated (max 65%), whereas liquid junction potentials were not corrected. Recordings were performed at a holding potential of −60 mV.

GluN1 ABD = biological target: GluN1 ABD; parameters: method as in PMID 16641235; settings: cited from earlier work; for pKi: isolated domains
GluN1 (native receptors) = settings: read-out: Ki for GluN1; cited from earlier work
[4] = biological target: GluN1-C744S-C798S/GluN3A-C859S-C913S receptors (Rattus norvegicus, UniProt P35439+Q9R1M7, C744S/C798S/C859S/C913S); settings: CNQX 50 µM
Description: as §1

[5] = biological target: T3, GluN1/GluN3A receptors in CA1 pyramidal cells (Mus musculus, UniProt A2AIR5+P35438); assay: Glycine puffs onto voltage-clamped CA1 pyramidal cells, hippocampal slices of wild-type mice; assay type: cell-based
T3 construct: from tissue; host or cells: acute hippocampal slices (CA1 pyramidal cells) of P8-P12 wild-type mice
Description: as §2, §3

GluN3A ABD = settings: read-out: Glycine affinity; isolated GluN3A ABD; cited from earlier work
GluN1/GluN3A receptors [6] = biological target: T1, GluN1/GluN3A receptors; assay: Two-electrode voltage-clamp in Xenopus oocytes expressing wild-type GluN1/GluN3A; assay type: cell-based; parameters: while we record from intact (i.e. full length) membrane-imbedded receptors; expressed in transfected cells; host or cells: HEK293 cells; settings: TCEP 5 mM, 20 min; glycine 100 µM
Description: Oocytes from Xenopus lævis (Xenopus Express, Rennes, France) were used for heterologous expression of recombinant GluN1/GluN3A receptors studied using two-electrode voltage-clamp (TEVC). TEVC recordings were performed 3–4 days following injection. […] Each oocyte was co-injected with a mixture of GluN1 and GluN3A cDNA at a concentration of 50 ng/µl and at a 1:1 ratio. The standard external solution contained (in mM): 100 NaCl, 2.5 KCl, 0.3 BaCl2, 5 HEPES, 0.01 DTPA (diethylenetriamine-pentaacetic acid), pH 7.3. […]
EC50, a and nH were set as free parameters.

HEK cells = assay: Tolerability of reducing agent when patching HEK cells
Description: In the current work, TCEP was used on HEK cells and DTE on Xenopus oocytes.
When patching HEK cells, however, we observed that
Accordingly, we switched to TCEP,
DTE and TCEP, while both powerful to break disulfide
bonds, differ in their membrane permeability (DTE can cross membranes but not TCEP).

T1 sequence (Q9R1M7 24-1135, other chains not shown): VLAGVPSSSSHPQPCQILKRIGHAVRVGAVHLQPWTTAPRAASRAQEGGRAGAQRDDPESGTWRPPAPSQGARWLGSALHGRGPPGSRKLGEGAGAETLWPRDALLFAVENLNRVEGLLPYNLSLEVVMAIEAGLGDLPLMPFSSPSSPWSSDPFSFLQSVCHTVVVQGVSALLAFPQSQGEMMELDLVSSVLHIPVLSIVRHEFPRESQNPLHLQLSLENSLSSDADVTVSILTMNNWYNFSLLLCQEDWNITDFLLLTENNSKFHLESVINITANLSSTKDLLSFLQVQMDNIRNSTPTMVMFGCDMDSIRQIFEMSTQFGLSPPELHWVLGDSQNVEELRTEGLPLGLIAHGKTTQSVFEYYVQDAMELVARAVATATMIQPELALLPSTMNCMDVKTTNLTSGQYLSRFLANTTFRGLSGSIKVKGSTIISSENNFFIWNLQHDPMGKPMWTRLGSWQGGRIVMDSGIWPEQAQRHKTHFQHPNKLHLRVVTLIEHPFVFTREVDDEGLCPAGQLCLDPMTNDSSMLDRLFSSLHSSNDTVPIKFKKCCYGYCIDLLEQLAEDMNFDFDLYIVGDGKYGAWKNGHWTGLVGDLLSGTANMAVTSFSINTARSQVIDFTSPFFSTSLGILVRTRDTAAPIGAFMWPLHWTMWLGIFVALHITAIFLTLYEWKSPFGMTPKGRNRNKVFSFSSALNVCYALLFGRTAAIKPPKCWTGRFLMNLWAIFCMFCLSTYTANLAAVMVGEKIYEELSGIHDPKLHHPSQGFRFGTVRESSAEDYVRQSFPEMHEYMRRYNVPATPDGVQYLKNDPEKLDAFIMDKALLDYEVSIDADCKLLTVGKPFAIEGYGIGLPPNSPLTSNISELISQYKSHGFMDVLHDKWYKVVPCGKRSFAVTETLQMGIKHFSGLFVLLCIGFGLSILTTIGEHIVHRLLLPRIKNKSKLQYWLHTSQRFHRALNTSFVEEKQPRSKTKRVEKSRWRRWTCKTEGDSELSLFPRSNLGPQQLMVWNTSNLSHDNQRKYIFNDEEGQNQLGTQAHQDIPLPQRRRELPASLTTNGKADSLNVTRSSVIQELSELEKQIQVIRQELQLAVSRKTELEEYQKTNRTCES
T2 sequence (Q9R1M7 24-1135, other chains not shown): as above
Chain of GluN1-C744S-C798S/GluN3A-C859S-C913S receptors (Q9R1M7 24-1135 C859S/C913S, other chains not shown): as the sequence (Q9R1M7 24-1135, other chains not shown) above, with C836S, C890S counted along it
T3 sequence (A2AIR5 27-1135, other chains not shown): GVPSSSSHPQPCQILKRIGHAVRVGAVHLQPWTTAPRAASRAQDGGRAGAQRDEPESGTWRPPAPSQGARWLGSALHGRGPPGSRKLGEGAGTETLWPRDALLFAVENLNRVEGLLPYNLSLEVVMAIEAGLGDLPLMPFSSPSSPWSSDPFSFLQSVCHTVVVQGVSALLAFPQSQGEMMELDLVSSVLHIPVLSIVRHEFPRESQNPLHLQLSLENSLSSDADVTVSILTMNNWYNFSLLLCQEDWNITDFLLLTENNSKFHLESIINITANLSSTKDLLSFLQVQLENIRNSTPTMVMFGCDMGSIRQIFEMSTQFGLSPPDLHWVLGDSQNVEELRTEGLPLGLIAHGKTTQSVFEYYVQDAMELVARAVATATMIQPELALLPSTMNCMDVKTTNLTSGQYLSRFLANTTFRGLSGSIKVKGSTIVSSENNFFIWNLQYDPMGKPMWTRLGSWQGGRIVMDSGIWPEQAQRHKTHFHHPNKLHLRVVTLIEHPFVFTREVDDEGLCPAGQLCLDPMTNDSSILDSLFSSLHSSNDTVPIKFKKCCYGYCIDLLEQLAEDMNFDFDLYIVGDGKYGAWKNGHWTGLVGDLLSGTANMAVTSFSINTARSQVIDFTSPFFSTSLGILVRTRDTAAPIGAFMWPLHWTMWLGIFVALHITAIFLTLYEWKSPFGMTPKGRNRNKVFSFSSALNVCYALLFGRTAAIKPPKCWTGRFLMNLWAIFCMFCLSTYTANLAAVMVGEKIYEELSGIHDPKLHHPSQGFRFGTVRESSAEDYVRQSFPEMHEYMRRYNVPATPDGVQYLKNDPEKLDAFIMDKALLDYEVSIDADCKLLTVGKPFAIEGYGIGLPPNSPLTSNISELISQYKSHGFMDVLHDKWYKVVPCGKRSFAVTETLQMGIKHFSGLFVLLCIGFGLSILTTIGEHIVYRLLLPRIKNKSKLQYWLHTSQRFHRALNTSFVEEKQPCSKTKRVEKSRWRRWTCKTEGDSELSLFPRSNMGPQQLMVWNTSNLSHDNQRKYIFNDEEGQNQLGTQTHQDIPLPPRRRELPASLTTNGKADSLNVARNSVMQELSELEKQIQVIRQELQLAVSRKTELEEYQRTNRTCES

N[C@@H](CCC(=O)N[C@@H](CS)C(=O)NCC(=O)O)C(=O)O [GSH, reduced glutathione]
Effect of reducing treatment on glycine-evoked responses (GluN1/GluN3A receptors [1]; GSH 50 mM): completely modified the current phenotype

C[C@@H](NCc1cc(Br)cc2[nH]c(=O)c(=O)[nH]c12)P(=O)(O)O.Cl [CGP-78608, [(1 S)-1-[[(7-Bromo-1,2,3,4-tetrahydro-2,3-dioxo-5-quinoxalinyl)methyl]amino]ethyl]phosphonic acid hydrochloride]
Potentiating effect on GluN1-F484A mutant [2]: insensitive; also recorded: almost completely abolished
Glycine-induced inward current amplitude ([3]; bath CGP-78608 1 µM): 5.0 ± 0.6 pA
pKi (GluN1 ABD): 8.19

O=C(Nc1ccccc1)N[C@H]1C[C@H](C(=O)O)Nc2cc(Cl)cc(Cl)c21 (relative stereo) [L-689560, trans-2-Carboxy-5,7-dichloro-4-phenylaminocarbonylamino-1,2,3,4-tetrahydroquinoline]
Peak and steady-state current potentiation compared with CGP-78608 (GluN1/GluN3A receptors [1]; glycine 1 mM): orders of magnitude lower
Selectivity for GluN1 vs GluN3 ABD (GluN1 ABD; binding studies on isolated agonist-binding domains): even better than CGP-78608
pKi (GluN1 ABD): 7.53

N[C@H](CO)C(=O)O [D-serine]
Agonist efficacy relative to glycine (GluN1/GluN3A receptors [1]; D-serine up to 500 µM vs glycine 100 µM, CGP-78608 500 nM): lower efficacy than glycine

O=C(O)CCc1c(C(=O)O)[nH]c2cc(Cl)cc(Cl)c12 [MDL-29951, 2-carboxy-4,6-dichloro-1H-indole-3-propanoic acid]
Potentiating factors at higher concentration (GluN1/GluN3A receptors [1]; MDL-29951 2 µM, glycine 1 mM): smaller than those observed at 200 nM
Peak and steady-state current potentiation compared with CGP-78608 (GluN1/GluN3A receptors [1]; glycine 1 mM): orders of magnitude lower
pKi (GluN1 (native receptors)): 6.85

O=C(O)c1cc(O)c2ccc(Cl)cc2n1 [7-CKA, 7-Chlorokynureic acid]
Peak and steady-state current potentiation compared with CGP-78608 (GluN1/GluN3A receptors [1]; glycine 1 mM): orders of magnitude lower
pKi (GluN1 ABD): 5.59

N#Cc1cc2[nH]c(=O)c(=O)[nH]c2cc1[N+](=O)[O-] [CNQX, 6-Cyano-7-nitroquinoxaline-2,3-dione]
Outward displacement of holding current (GluN1/GluN3A receptors [1]; CNQX 50 µM, no added glycine): 0.6 ± 0.06 pA
Effect on tail currents following glycine removal ([4]; glycine 100 µM): inhibited the large tail currents
Displacement of holding current ([4]; no added glycine): 22.9 ± 8.3 pA

O=C(O)c1cc(=O)c2c(Cl)cc(Cl)cc2[nH]1 [DCKA, 5-7-Dichlorokynurenic acid]
Glycine-induced current amplitude ([5]; bath DCKA 500 µM in presence of CGP-78608, WT): 10.2 ± 2.7 pA

NCC(=O)O [glycine, Glycine]
Glycine-induced inward current amplitude ([5]; glycine 10 mM puff, control conditions, WT P8-P12): 9.3 ± 1.4 pA
pKd (GluN3A ABD): 7.39
Glycine-induced inward current amplitude ([3]; control conditions): 6.0 ± 0.8 pA

O=C(O)CCP(CCC(=O)O)CCC(=O)O [TCEP, Tris(2-carboxyethyl)phosphine]
Effect of reducing treatment on glycine-evoked responses (GluN1/GluN3A receptors [1]; TCEP 5 mM): drastic effects
Effect of reducing treatment on glycine-evoked currents (GluN1/GluN3A receptors [6]): currents radically changed

O[C@H](CS)[C@@H](O)CS [DTE, dithioerythritol]
Tolerability by HEK cells (HEK cells): could induce cell toxicity
